In patent publication US8501908B2, “Immunogenic peptides” (priority 2008, dated 2013):

What was measured:
Assay type in all cases: cell-based, human
[1] = test system: OCI-Ly3 (DLBCL) cell line; test: 51Cr release cytolytic assay of peptide-specific CTL/TH cell lines; conditions: for lysis by CTL lines raised against the peptide: PASD1-positive HLA-A*0201-negative OCI-Ly3, 4 h 51Cr release; for lysis by TH cell lines specific for the peptide: PASD1-positive OCI-Ly3, 18 h 51Cr release
Protocol: (§1) A conventional ^51Cr-labelling release assay was used to investigate the ability of CTL and TH cell lines generated from DLBCL patients to lyse PASD1-positive tumour target cells. The target cell lines, consisting of the OCI-Ly3, SUDHL-6, KM-H2 and Thiel, were radiolabelled with 100 μCi ^51Cr for 90 minutes. […] The incubation period of the TH with the target cells was increased to 18 hours. Maximum ^51Cr release was determined following the addition of 10% Triton-X to the radiolabelled target cells and spontaneous release was assessed by adding RPMI1640/FCS to the target cells. The supernatant was harvested and counted in a gamma-counter (Beckmann, Heidelberg, Germany).

[2] = test system: SUDHL-6 (DLBCL) cell line; test: as above; conditions: PASD1-negative SUDHL-6; for lysis by CTL lines raised against the peptide: 4 h 51Cr release; for lysis by TH cell lines specific for the peptide: 18 h 51Cr release
Protocol: as §1

[3] = test system: Thiel (myeloma) cell line; test: as above; conditions: for lysis by CTL lines raised against the peptide: HLA-A*0201-positive PASD1-positive Thiel, 4 h 51Cr release, four patients; for lysis by TH cell lines specific for the peptide: PASD1-positive Thiel, 18 h 51Cr release
Protocol: as §1

[4] = test system: PBMCs from DLBCL patients; test: γ-IFN release ELISPOT, PBMCs of DLBCL patients after short-term culture with peptides; design: γ-IFN response to peptides: unit not given here; conditions: for order of immunogenicity for eliciting CTLs / order of immunogenicity for eliciting TH cell responses: from γ-IFN release assay; for order of immunogenicity for eliciting CTLs: order PASD1(1), PASD1(2), PASD1(5), PASD1(3), PASD1(4); for TH γ-IFN response to peptides at time of diagnosis and after one year: DLBCL patients (FIG. 5), short term culture, p<0.05; for γ-IFN response to peptides: triplicate ELISPOT; for immunogenicity among patients studied: TH γ-IFN response, DLBCL patients; for γ-IFN response to the PASD1(1) CTL peptide elicited by culture with the peptide: cells cultured 8-10 days with PASD1(6) or PASD1(7), Table 4; for order of immunogenicity for eliciting TH cell responses: order PASD1(6), PASD1(7), PASD1(10), PASD1(9), PASD1(8)
KM-H2 (HL) cell line = test: 51Cr release cytolytic assay of peptide-specific CTL cell lines; conditions: HLA-A*0201-negative PASD1-positive KM-H2; 4 h 51Cr release
Protocol: as §1

[5] = test system: PBMCs from healthy donors; test: γ-IFN release ELISPOT, PBMCs of healthy donors after short-term culture with peptides; conditions: triplicate ELISPOT, ± SD
[6] = PBMCs from a DLBCL patient stimulated in culture with PASD1(6) or PASD1(7) peptides, +/− SD
[7] = Patient 1, De novo DLBCL, DRB1-0102, group Significant response, ± SD
[8] = Patient 2, De novo DLBCL, DRB1-0101, group Significant response, ± SD
[9] = Patient 3, De novo DLBCL, DRB1-0301, group Significant response, ± SD
[10] = Patient 4, De novo DLBCL, DRB1-0102, group Significant response, ± SD
[11] = Patient 8, De novo DLBCL, DRB1-1501, group Significant response, ± SD
[12] = Patient 9, De novo DLBCL, DRB1-0301, group Significant response, ± SD
[13] = Patient 10, De novo DLBCL, DRB1-0101, group No significant response, ± SD
[14] = Patient 12, De novo DLBCL, DRB1-0401, group Significant response, ± SD
[15] = Patient 15, De novo DLBCL, DRB1-1301, group No significant response, ± SD
[16] = Patient 17, De novo DLBCL, DRB1-0301, group No significant response, ± SD
[17] = Patient 18, De novo DLBCL, DRB1-0401, group No significant response, ± SD
[18] = Patient 19, De novo DLBCL, DRB1-1104, group No significant response, ± SD
[19] = Patient 20, De novo DLBCL, DRB1-1303, group No significant response, ± SD
[20] = Patient 21, De novo DLBCL, DRB1-0301, group No significant response, ± SD
[21] = Patient 24, De novo DLBCL, DRB1-1301, group Significant response, ± SD
[22] = Patient 28, Trans DLBCL, DRB1-0701, group No significant response, ± SD
[23] = Patient 37, Trans DLBCL, DRB1-0103, group Significant response, ± SD
[24] = Patient 48, T-cell rich DLBCL, DRB1-0301, group Significant response, ± SD
[25] = Patient 61, De novo DLBCL, DRB1-0401, group No significant response, ± SD

| Substance | γ-IFN response to peptides [4, 6] | γ-IFN response to peptides [4, 7] | γ-IFN response to peptides [4, 8] | γ-IFN response to peptides [4, 9] | γ-IFN response to peptides [4, 10] | γ-IFN response to peptides [4, 11] | γ-IFN response to peptides [4, 12] | γ-IFN response to peptides [4, 13] | γ-IFN response to peptides [4, 14] | γ-IFN response to peptides [4, 15] | γ-IFN response to peptides [4, 16] | γ-IFN response to peptides [4, 17] | γ-IFN response to peptides [4, 18] | γ-IFN response to peptides [4, 19] | γ-IFN response to peptides [4, 20] | γ-IFN response to peptides [4, 21] | γ-IFN response to peptides [4, 22] | γ-IFN response to peptides [4, 23] | γ-IFN response to peptides [4, 24] | γ-IFN response to peptides [4, 25] | other results |
| --- | --- | --- | --- | --- | --- | --- | --- | --- | --- | --- | --- | --- | --- | --- | --- | --- | --- | --- | --- | --- | --- |
| ELSDSLGPV (listed as Homo sapiens) [PASD1(5)] |  |  |  |  |  |  |  |  |  |  |  |  |  |  |  |  |  |  |  |  | lysis by CTL lines raised against the peptide [1]: not; lysis by CTL lines raised against the peptide [2]: not; lysis by CTL lines raised against the peptide [3]: dose dependent lysis; order of immunogenicity for eliciting CTLs [4]: more immunogenic; lysis by CTL lines raised against the peptide (KM-H2 (HL) cell line): not |
| DYFNQVTLQLLDGFMITLST (listed as Homo sapiens) [PASD1(6)] | 32 +/− 2 | 52 ± 6 | 32 ± 4 | 34 ± 4 | 58 ± 8 | 36 ± 6 | 22 ± 6 | 30 ± 8 | 44 ± 6 | 28 ± 4 | 20 ± 2 | 14 ± 2 | 22 ± 2 | 10 ± 2 | 18 ± 2 | 22 ± 4 | 28 ± 4 | 38 ± 4 | 48 ± 4 | 22 ± 2 | lysis by TH cell lines specific for the peptide [1]: Significant dose dependent lysis; lysis by TH cell lines specific for the peptide [2]: no significant lysis; lysis by TH cell lines specific for the peptide [3]: Significant dose dependent lysis; TH γ-IFN response to peptides at time of diagnosis and after one year [4]: significant; immunogenicity among patients studied [4]: immunogenic in the majority of patients; γ-IFN response to the PASD1(1) CTL peptide elicited by culture with the peptide [4]: comparable; order of immunogenicity for eliciting TH cell responses [4]: most immunogenic; γ-IFN response to peptides ([5]; Healthy donor HD 1, DRB1-0102): 14 ± 2; γ-IFN response to peptides ([5]; Healthy donor HD 2, DRB1-0401): 10 ± 2; γ-IFN response to peptides ([5]; Healthy donor HD 3, DRB1-0401): 5 ± 2; γ-IFN response to peptides ([5]; Healthy donor HD 4, DRB1-0301): 14 ± 2; γ-IFN response to peptides ([5]; Healthy donor HD 5, DRB1-0301): 24 ± 2 |
| DGFMITLSTDGVIICVAENI (listed as Homo sapiens) [PASD1(7)] | 26 +/− 2 | 28 ± 4 | 46 ± 8 | 26 ± 4 | 44 ± 4 | 18 ± 2 | 18 ± 2 | 26 ± 2 | 36 ± 4 | 32 ± 2 | 18 ± 4 | 26 ± 2 | 26 ± 2 | 14 ± 2 | 10 ± 2 | 38 ± 4 | 22 ± 6 | 32 ± 6 | 56 ± 6 | 10 ± 4 | lysis by TH cell lines specific for the peptide [1]: Significant dose dependent lysis; lysis by TH cell lines specific for the peptide [2]: no significant lysis; lysis by TH cell lines specific for the peptide [3]: Significant dose dependent lysis; TH γ-IFN response to peptides at time of diagnosis and after one year [4]: significant; immunogenicity among patients studied [4]: immunogenic in the majority of patients; γ-IFN response to the PASD1(1) CTL peptide elicited by culture with the peptide [4]: comparable; order of immunogenicity for eliciting TH cell responses [4]: most immunogenic; γ-IFN response to peptides ([5]; Healthy donor HD 1, DRB1-0102): 20 ± 2; γ-IFN response to peptides ([5]; Healthy donor HD 2, DRB1-0401): 8 ± 2; γ-IFN response to peptides ([5]; Healthy donor HD 3, DRB1-0401): 10 ± 2; γ-IFN response to peptides ([5]; Healthy donor HD 4, DRB1-0301): 20 ± 2; γ-IFN response to peptides ([5]; Healthy donor HD 5, DRB1-0301): 22 ± 2 |
| VGNVCILRTQLLQQLYTSKA (listed as Homo sapiens) [PASD1(9)] |  | 30 ± 2 | 24 ± 2 | 24 ± 2 | 18 ± 2 | 18 ± 2 | 20 ± 2 | 10 ± 2 | 20 ± 4 | 8 ± 2 | 8 ± 2 | 24 ± 2 | 18 ± 2 | 8 ± 2 | 16 ± 2 | 26 ± 4 | 22 ± 4 | 28 ± 2 | 26 ± 2 | 16 ± 2 | γ-IFN response to peptides ([5]; Healthy donor HD 1, DRB1-0102): 14 ± 2; γ-IFN response to peptides ([5]; Healthy donor HD 2, DRB1-0401): 1 ± 1; γ-IFN response to peptides ([5]; Healthy donor HD 3, DRB1-0401): 8 ± 2; γ-IFN response to peptides ([5]; Healthy donor HD 4, DRB1-0301): 19 ± 2; γ-IFN response to peptides ([5]; Healthy donor HD 5, DRB1-0301): 18 ± 2 |
| phytohaemagglutinin [PHA, reference compound] | 48 +/− 2 | 98 ± 15 | 106 ± 18 | 62 ± 8 | 98 ± 14 | 48 ± 4 | 118 ± 18 | 78 ± 8 | 72 ± 10 | 58 ± 6 | 54 ± 12 | 62 ± 12 | 58 ± 14 | 52 ± 10 | 102 ± 10 | 86 ± 14 | 45 ± 8 | 126 ± 22 | 84 ± 10 | 58 ± 10 | γ-IFN response to peptides ([5]; Healthy donor HD 1, DRB1-0102): 86 ± 14; γ-IFN response to peptides ([5]; Healthy donor HD 2, DRB1-0401): 66 ± 10; γ-IFN response to peptides ([5]; Healthy donor HD 3, DRB1-0401): 46 ± 6; γ-IFN response to peptides ([5]; Healthy donor HD 4, DRB1-0301): 74 ± 16; γ-IFN response to peptides ([5]; Healthy donor HD 5, DRB1-0301): 63 ± 10 |
| QLLDGFMITL (listed as Homo sapiens) [PASD1(1)] | 30 +/− 4 |  |  |  |  |  |  |  |  |  |  |  |  |  |  |  |  |  |  |  | lysis by CTL lines raised against the peptide [1]: not; lysis by CTL lines raised against the peptide [2]: not; lysis by CTL lines raised against the peptide [3]: dose dependent lysis; cytolytic effect of peptide-stimulated cells ([3]; effector:target ratio of 5:1, all four patients): significant; order of immunogenicity for eliciting CTLs [4]: most immunogenic; lysis by CTL lines raised against the peptide (KM-H2 (HL) cell line): not |
| YLVGNVCIL (listed as Homo sapiens) [PASD1(2)] |  |  |  |  |  |  |  |  |  |  |  |  |  |  |  |  |  |  |  |  | lysis by CTL lines raised against the peptide [1]: not; lysis by CTL lines raised against the peptide [2]: not; lysis by CTL lines raised against the peptide [3]: dose dependent lysis; order of immunogenicity for eliciting CTLs [4]: more immunogenic; lysis by CTL lines raised against the peptide (KM-H2 (HL) cell line): not |
